Data as given in patent US20060035932A1, “N-aryl piperidine compounds” (Propharmacon, Inc., priority 2004, published 2006).
Like-named read-outs stand apart in the source and are kept apart here.

Target: T1, binding of recombinant macrophage-tropic strain JR-FL gp120 to immobilized recombinant CD4 (Homo sapiens, UniProt P01730)
T1 construct: human CD4 (comprised of amino acids 1-371); made in house; host or cells: Sf9 insect cells, baculovirus vector pAcGP67
Test: gp120/CD4 binding assay (DELFIA competition assay, europium-labeled gp120, immobilized CD4)
Design: species or system HIV (strain JR-FL) gp120; human CD4
Description: Coding sequences for gp120 (macrophage-tropic strain JR-FL) and human CD4 (comprised of amino acids 1-371) were sub-cloned into the commercial baculovirus expression vector pAcGP67 (Pharmingen, San Diego, Calif.). The recombinant vectors were then transfected into Sf9 insect cell monolayers using the Baculogold™ transfection system. Clones were isolated by the method of limited dilution.
For large-scale production, cell culture was scaled up in 8-liter spinner flasks of Sf9 cells adapted to serum-free growth conditions, then infected by baculovirus using an MOI of 5 and the cell supernatant was harvested 72 hours later. The yields of recombinant protein expressed for both proteins were similar; 2-5 μg/ml (micrograms per milliliter). Recombinant CD4 protein was immunopurified using an affinity-column of immobilized Anti-CD4 D1 mAb Leu3a (Dalgleish, A. G., et al., Lancet, 2:1047-1050 1987) and gp120 protein was immunopurified using a resin coupled with Propharmacon monoclonal antibody PPC3G6 produced in-house (mouse IgG2) against Sf9-produced gp120. Protein purity and molecular weight were assessed using reduced and non-reduced SDS PAGE.
The identification of inhibitors was carried out by a competition assay utilizing recombinant macrophage-tropic strain JR-FL gp120, which competes with a prospective inhibitor to bind to immobilized recombinant CD4. The amount of gp12O binding to CD4 was quantitated by DELFIA “Dissociation Enhanced Lanthanide Fluoroimmunoassay” (Paterson, N., et al., Ann. Clin Biochem., 22, 606-611, 1985), having previously labeled the gp120 with a commercial europium chelate (Wallac Oy, Turku, Finland). The final readout uses time-resolved fluorescence to quantitate the amount of dissociated europium metal present. Binding of labeled gp120 was saturable and yielded an IC50 of 3 nM, which approximates literature values (Lasky, L. A., et al., Cell, 50, 975-985). In addition, the binding of gp120 was inhibited by Leu3a with an IC50 of 2 μg/ml. […] The assay is optionally adapted to 384-well format for screening purposes.

[1] = gp120/CD4 binding assay, read-out: Activity (IC50 level in the gp120/CD4 binding assay)

| SMILES | IC50 [1] [µM] | also measured |
| --- | --- | --- |
| O=C(O)[C@H](Cc1ccccc1)NS(=O)(=O)c1cnc(N2CCC(CCCCCC3CCN(S(=O)(=O)c4cc(Br)c(Cl)s4)CC3)CC2)c(Br)c1 | < 1 |  |
| O=C(O)CN(CCc1ccc(F)cc1)S(=O)(=O)c1cnc(N2CCC(CCCC3CCN(S(=O)(=O)c4cc(Br)c(Cl)s4)CC3)CC2)c(Br)c1 | < 1 |  |
| O=C(NCCCCC(NS(=O)(=O)c1cnc(N2CCC(CCCC3CCN(S(=O)(=O)c4cc(Br)c(Cl)s4)CC3)CC2)c(Br)c1)C(=O)O)OCc1ccccc1Cl (stereo not shown) | < 1 |  |
| O=C(O)[C@H](Cc1ccccc1)NS(=O)(=O)c1cnc(N2CCC(CCCCCCCC3CCN(S(=O)(=O)c4cc(Br)c(Cl)s4)CC3)CC2)c(Br)c1 | < 1 |  |
| O=C(O)CC1Cc2ccccc2CN1S(=O)(=O)c1cnc(N2CCC(CCCCC3CCN(S(=O)(=O)c4cc(Br)c(Cl)s4)CC3)CC2)c(Br)c1 (stereo not shown) | < 1 |  |
| O=C(O)C1(NS(=O)(=O)c2cnc(N3CCC(CCCC4CCN(S(=O)(=O)c5cc(Br)c(Cl)s5)CC4)CC3)c(Br)c2)CCCCC1 | < 1 |  |
| O=C(O)[C@H](Cc1ccccc1)NS(=O)(=O)c1cnc(N2CCC(CCCCC3CCN(S(=O)(=O)c4cc(Br)c(Cl)s4)CC3)CC2)c(C(F)(F)F)c1 | 1 to 10 |  |
| O=C(O)C[C@@H]1CCCN1S(=O)(=O)c1cnc(N2CCC(CCCC3CCN(S(=O)(=O)c4cc(Br)c(Cl)s4)CC3)CC2)c(Br)c1 | 1 to 10 |  |
| O=C(O)[C@H](Cc1ccc(Cl)cc1)NS(=O)(=O)c1cnc(N2CCC(CCCCCC3CCN(S(=O)(=O)c4cc(Br)c(Cl)s4)CC3)CC2)c(Br)c1 | 1 to 10 |  |
| O=C(O)[C@H](Cc1ccccc1)NS(=O)(=O)c1ccc(N2CCC(CCCC3CCN(S(=O)(=O)c4cc(Br)c(Cl)s4)CC3)CC2)c(Cl)c1 | 1 to 10 |  |
| CSCC[C@H](NS(=O)(=O)c1ccc(N2CCC(CCCC3CCN(S(=O)(=O)c4ccc(C(C)(C)C)cc4)CC3)CC2)c(Cl)c1)C(=O)O | 1 to 10 |  |
| O=C(O)[C@@H]1CC[C@H](NS(=O)(=O)c2ccc(N3CCC(CCCC4CCN(S(=O)(=O)c5ccc(F)cc5)CC4)CC3)c(Cl)c2)C1 | > 10 |  |
| O=C(NO)[C@H]1CC[C@H](NS(=O)(=O)c2ccc(N3CCC(CCCC4CCN(S(=O)(=O)c5cc(Br)c(Cl)s5)CC4)CC3)c(Cl)c2)C1 | > 10 |  |
| O=S(=O)(c1cnc(N2CCC(CCCC3CCN(S(=O)(=O)c4c(Cl)ccc5nonc45)CC3)CC2)c(Br)c1)N1CCCNCC1 | > 10 |  |
| O=C(O)C1=CC(=C(c2ccc(O)c(C(=O)O)c2)c2ccc(O)c(C(=O)O)c2)C=CC1=O [aurintricarboxylic acid, reference compound] |  | IC50 (control substances used in optimizing the binding assay, read-out: IC50, inhibition of binding of gp120 to immobilized CD4 (converted)): 1.18 µM |
| CC(C)CCC[C@@H](C)[C@H]1CC[C@H]2[C@@H]3CC[C@H]4C[C@@H](CCC=C(c5cc(Cl)c(O)c(C(=O)O)c5)c5cc(Cl)c(O)c(C(=O)O)c5)CC[C@]4(C)[C@H]3CC[C@]12C [cosalane, reference compound] |  | IC50, inhibition of binding of gp120 to immobilized CD4 (control substances used in optimizing the binding assay): 4.3 µg/mL |
